Data taken from publication PMC11936910, “Population pharmacokinetics of polymyxin B in critically ill patients with carbapenem-resistant organisms infections: insights from steady-state trough and peak plasma concentration” (Frontiers in Pharmacology, 2025).
Like-named read-outs stand apart in the source and are kept apart here. Bridge positions count the residues as written; N and C are the ends. Square brackets hold non-standard residues; d marks the D form. Peptide text beside a SMILES is read from it. * marks the point of attachment. X1 = CC[C@H](C)CCCCC(=O)*; Dab = NCC[C@H](N)C(=O)O

Columns and labels:
[1] = Population pharmacokinetic (PopPK) model of PMB, NONMEM, one-compartment; format: in vivo, critically ill patients
Source text: The PopPK model was developed using nonlinear mixed-effects modeling software: NONMEM (version 7.5.1, ICON plc, United States), Pirana (version 23.1.2, Certara L.P., United States), and PsN (version 5.3.0, https://uupharmacometrics.github.io/PsN/), with the first-order conditional estimation method including interaction (FOCE-I). The base model was selected based on goodness-of-fit (GOF) diagnostic plots, relative standard error (RSE) of parameters, and the objective function value (OFV). Spearman correlation was used to evaluate the relationships between covariates and individual empirical Bayesian estimates (EBEs) of PK parameters before covariate selection. A decrease in OFV >3.84 (P < 0.05, χ^2, df = 1) for forward addition and an increase >6.63 (P < 0.01, χ^2, df = 1) for backward elimination were the criteria for covariate inclusion. GOF plots were used to assess the model. To assess the stability of the final model and the precision of the PK parameters, a bootstrap method with 1,000 resampling iterations was performed. The final model was then subjected to 1,000 simulations for visual predictive checks (VPC) to evaluate the model’s predictive ability and accuracy. The accuracy and predictive performance of the model were further assessed using normalized prediction distribution errors (NPDE) plots. Statistical validation of the model was conducted using the t-test, Fisher’s test, Shapiro-Wilk test, and the Global test.
The patients were divided into a modeling group and a validation group based on the chronological order of enrollment and in accordance with the inclusion and exclusion criteria. External validation of the final model was performed using the validation group data. The mean prediction error (MPE), mean absolute prediction error (MAPE) (Equations 1, 2), F20 (20% of the absolute value of the prediction error), and F30 were calculated by comparing the predicted values with the observed values. Model performance was considered acceptable if MPE% ≤ ±20%, MAPE% ≤ 30%, F20 ≥ 35%, and F30 ≥ 50% ([Mao et al., 2018]). MPE%=1/N∑i=1Npredi−obsi/obsi×100 (1) MAPE%=1/N∑i=1Npredi−obsi/obsi×100 (2) predi denotes the i-th predicted value, and obsi its corresponding observed value.
A one-compartment model with first-order elimination best fit the population data of PMB in critically ill patients. Inter-individual variability was described using an exponential random effects model, while residual variability was described using both proportional and additive error models.

[2] = Steady-state trough and peak plasma concentrations of PMB (UPLC-MS/MS) and AUCss,24h estimation; format: in vivo, critically ill patients; details: for Cmax / AUC(0-t): human, plasma, iv; for Cmax: sample immediately after infusion, UPLC-MS/MS, read-out: Cpeak, ss; for AUC(0-t): two-point method (Ctrough,ss and Cpeak,ss, first-order elimination equation), mean ± SD, SD, read-out: Equation-based AUCss,24h
Protocol: A single-center prospective study was conducted in the intensive care unit (ICU) of the First Affiliated Hospital of Army Medical University from August 2021 to July 2024. Inclusion criteria: (1) patients aged ≥18 years; (2) patients receiving intravenous PMB for CRO infections confirmed by pathogen testing; (3) patients receiving at least four consecutive doses of intravenous PMB, or a loading dose followed by at least three consecutive doses. Exclusion criteria: (1) patients with missing clinical data; (2) patients hospitalized for fewer than 7 days; (3) patients receiving any form of renal replacement therapy during PMB treatment; (4) pregnant women. The research protocol was approved by the Ethics Committee of our hospital (No. (A) KY2021064).
After at least 48 h of treatment, two blood samples were collected: one immediately before the infusion and the other immediately after. The exact times of blood sampling and infusion were recorded for each patient. Plasma was separated by low-temperature, low-speed centrifugation and stored at −70°C until analysis.
PMB concentrations were analyzed using a validated ultra-performance liquid chromatography-tandem mass spectrometry (UPLC-MS/MS) method. Briefly, using polymyxin E2 as the internal standard, the assay was linear over 0.2–20.0 mg·L^-1 and 0.05–5 mg·L^-1 (r > 0.995) for PMB1 and PMB2 respectively. […] PMB concentration was calculated as follows: total concentration of PMB = [PMB1 concentration/PMB1 molecular + PMB2 concentration/PMB2 molecular]*total PMB molecular ([Liu et al., 2023]).
Data analysis was performed SPSS (version 26.0, IBM, United States) and GraphPad Prism (version 8.3.0, CA, United States). Variables with a normal distribution were expressed as mean ± standard deviation (SD), while non-normally distributed variables were reported as median (interquartile range, IQR). Categorical data were presented as percentages (%). Comparisons between two groups were conducted using the Mann-Whitney U test for non-normally distributed data and the independent t-test for normally distributed data. The estimation of AUCss,24h used the two-point method was presented in Equations 3–5 ([Liu et al., 2023]), while the estimation of AUCss,24h based on the PopPK model was obtained by dividing the total 24-hour drug dose by the individual clearance. Bland-Altman analysis was performed to evaluate the consistency of AUCss,24h estimates obtained by the two methods. AUCss,24h values were categorized as “within the therapeutic window” (50–100 mg·h·L^-1), and McNemar’s test and Kappa test were applied to assess the consistency of AUCss,24h classifications. ke=lnCpeak,ss−lnCtrough,ss/τ−Infusion (3) Csoi′ =Cpeak,ss/e^−ke⋅Infusion (4) AUCss,24h=Csoi^′−Ctrough,ss/ke×n (5) Infusion time; τ: dosing interval; Csoi' is the exploratory concentration at the start of dosing based on the one-compartment linear elimination pharmacokinetic assumption; ke: elimination rate constant; n is the number of doses within 24 h.

[3] = cited from earlier work
Source text: In contrast, the lower CL observed in previous studies by Li et al. (1.18 L·h^-1) and Yu et al. (1.59 L·h^-1) may reflect differences in renal function and patient characteristics. Our study reported a value of 18 L, which ...

CRO strains = test: MICs of PMB against CRO strains; format: cell-based, carbapenem-resistant organisms
[4] = cited from earlier work; remark: listed apart in the source
Source text: The association between PMB pharmacokinetics and CrCL is still debated.

[5] = bootstrap median, 1,000 resampling iterations
[6] = CRO-infected patients, covariate TBW, ref Manchandani et al., 2018
[7] = CRO-infected patients, ref Kubin et al., 2018
[8] = Critically ill patients, covariate CrCL, ref Yu et al., 2020
[9] = Cystic fibrosis patients, covariate TBW, ref Crass et al., 2021
[10] = Kidney transplant patients, covariate CrCL, ref Li et al., 2021

SMILES: CC[C@H](C)CCCCC(=O)N[C@@H](CCN)C(=O)N[C@H](C(=O)N[C@@H](CCN)C(=O)N[C@H]1CCNC(=O)[C@H]([C@@H](C)O)NC(=O)[C@H](CCN)NC(=O)[C@H](CCN)NC(=O)[C@H](CC(C)C)NC(=O)[C@@H](Cc2ccccc2)NC(=O)[C@H](CCN)NC1=O)[C@@H](C)O [PMB, polymyxin B] (X1-[Dab]T[Dab][Dab][Dab][dF]L[Dab][Dab]T; lactam 4-C)
- CL [1, 5]: 2.02 L/h
- V [1, 5]: 17.98 L
- V ([1]; final model estimate, modeling group n = 80): 18 L
- CL ([1]; final model estimate, modeling group n = 80, 184 samples): 2.03 L/h
- AUCss,24h within the range of 50–100, share of values ([2]; estimated by the PPK model, 55/106 values (modeling and validation group)): 51.89%
- AUCss,24h within the range of 50–100, share of values ([2]; estimated using the two-point method, 49/106 values): 46.23%
- Cmax ([2]; modeling set (n = 80), median (IQR)): 5730 ng/mL
- AUC(0-t) ([2]; modeling set): 102000 ± 57900 ng·h/mL
- Cmax ([2]; validation set (n = 15), median (IQR)): 4340 ng/mL
- AUC(0-t) ([2]; validation set): 90500 ± 43400 ng·h/mL
- Model-based AUCss,24h ([2]; modeling set, total 24-hour dose divided by individual clearance from PopPK model, median (IQR)): 74.07 (55.81–94.07) mg·h/L
- CL [3, 6]: 2.50 L/h
- Vd [3, 6]: 34.30 L
- CL [3, 7]: 2.37 L/h
- Vd [3, 7]: 34.40 L
- CL [3, 8]: 1.59 L/h
- Vd [3, 8]: 20.50 L
- CL [3, 9]: 2.09 L/h
- Vd [3, 9]: 12.70 L
- CL [3, 10]: 1.18 L/h
- Vd [3, 10]: 12.90 L
- Share with MIC of PMB 16 mg·L^-1 (CRO strains; modeling group, 3/80): 3.75%
- Share with MIC of PMB 2 mg L^-1 (CRO strains; modeling group, 8/80): 10%
- Share with MIC of PMB 1 mg·L^-1 (CRO strains; modeling group, 11/80): 13.75%
- Share with MIC of PMB 2 mg·L^-1 (CRO strains; validation group, 2/15): 13.33%
- Share with MIC of PMB 1 mg·L^-1 (CRO strains; validation group, 4/15): 26.67%
- Share with MIC of PMB ≤0.5 mg·L^-1 (CRO strains; validation group, 9/15): 60%
- Urinary recovery ([4]; 17 patients, ref Sandri et al., 2013b): 0.98% to 17.40
- Urinary recovery rate ([4]; four patients, ref Yu et al., 2020): 23.56%
